From patent US20070191291A1, “Compound antibacterial drugs comprising n-acetyl-d-glucosamine” (priority 2003, published 2007) come the findings set out here.

Like-named read-outs stand apart in the source and are kept apart here.

The test system of one assay is Bacillus cereus. The assay can be described thus: Test Example 2: preventing formation of bacterial CGC in vitro (K-B method). The class given is cell-based. As to the method: (§1) E. coli (No. 33310, purchased from Chengdu Institute of Biological Products, the Ministry of Public Health) was used in the tests. Grid design was performed by using antibiotic with different concentrations and N-acetyl-D-glucosamine having an amount of from 10 mg to 300 mg. Streak plates were conducted separately, and K-B method was employed for drugs. Colonies at marginal part of drug inhibition zone were picked and were observed under microscope. If cell length was more than 50 μm and cell number was more than 5 in each visual field, it was deemed as CGC positive and was marked with “+”; while if cell length was not greater than 50 μm and cell number was within the range from 0 to 4 in each visual field, it was deemed as CGC negative and was marked with “−”. At this time, the ratio of two substances was called “effective ratio”.
(§2) Effects tests of compound preparation comprising N-acetyl-D-glucosamine and antibiotics for preventing the formation of bacterial CGC in vitro.
(§3) The tests were carried out in vitro, wherein gram-negative amphimicrodes, gram-negative anaerobes and gram-positive aerobes were separately coated on streak plates, test drugs and control drugs were separately dissolved with same volume of sterile water for injection, 10 μl of each drug was used for preparing drug-sensitive paper, K-B method was employed in the tests of drugs, and the inhibition situations of CGC formation were observed.

Another assay relates to Bacillus proteus. The assay is described as above. The class given is cell-based. How it is done:
as §1, §2, §3

A further assay has as its system Bacteroides fragilis. Described as above. The assay is classed as cell-based. How it is done: as §1, §2, §3
The test system of a further assay is Citro Bacter. The description is as above. The assay is classed as cell-based. As to the method:
as §1, §2, §3

The next assay deals with Diphtheroid bacillus. The assay is described as above. The assay is classed as cell-based. How it is done:
as §1, §2, §3

The next assay deals with E. coli. The description is as above. The assay is classed as cell-based. As to the method:
as §1, §2, §3

Another assay has as its system Klebsiella. The description is as above. The assay is classed as cell-based. As to the method: as §1, §2, §3
The test system of the next assay is Listeria. Described as above. The class given is cell-based. How it is done: as §1, §2, §3
For a further assay, the system named is Nucleic Acid Bacter. The assay is described as above. The assay is classed as cell-based. How it is done: as §1, §2, §3
For assay [1], the system named is rats infected and not infected by Bacillus typhi murium. The class given is in vivo, Wistar rats. As to conditions: rats infected or not by Bacillus typhi murium, consecutive week, 15 rats per group.
Assay [2] concerns irritable bowel syndrome (IBS) caused by bacterial CGC. The assay can be described thus: Test Example 5: preventing irritable bowel syndrome (IBS) caused by bacterial CGC. The assay is classed as in vivo, rats. Conditions: for CGCs in the rat stools after one week of drug withdrawal / CGCs in the stools of the rats: rats, effective dosage for consecutive 10 days, 30 rats per group; for CGCs in the stools of the rats: stools observed during administration and within 1 week after drug withdrawal. The text has this:
On this basis, the rats were subjected to stimulations such as electric stimulation, intragastric administration with fructus zanthoxyli water, cold, constraint etc. in order to induce IBS, and the incidence rates of IBS of two groups were observed.

Where [3] appears, read: compound preparation 150 mg N-acetyl-D-glucosamine + 150 mg ampicillin, control ampicillin.
Where [4] appears, read: first of three values given respectively: electric stimulation.
[5] abbreviates: second of three values given respectively: intragastric administration with fructus zanthoxyli water.
The mark [6] stands for this setting: third of three values given respectively: cold, constraint etc.
Setting [7] is: compound preparation 100 mg N-acetyl-D-glucosamine + 300 mg cefuroxime, control 300 mg cefuroxime.
[8] abbreviates: compound preparation 100 mg N-acetyl-D-glucosamine + 400 mg norfloxacin, control norfloxacin same dose.

In the case of `CC1(C)S[C@@H]2[C@H](NC(=O)[C@H](N)c3ccccc3)C(=O)N2[C@H]1C(=O)O` [Ampicillin, ampicillin], the CGC formation entry in the assay on Bacillus cereus (setting [3]) was “+ (If cell length was more than 50 μm and cell number was more than 5 in each visual field, it was deemed as CGC positive and was marked with “+”)”; in the assay with Bacillus proteus (setting [3]), “+ (If cell length was more than 50 μm and cell number was more than 5 in each visual field, it was deemed as CGC positive and was marked with “+”)”; in the assay with Bacteroides fragilis (setting [3]) it was “+ (If cell length was more than 50 μm and cell number was more than 5 in each visual field, it was deemed as CGC positive and was marked with “+”)”; with Citro Bacter (setting [3]), “+ (If cell length was more than 50 μm and cell number was more than 5 in each visual field, it was deemed as CGC positive and was marked with “+”)”; in the assay with Diphtheroid bacillus (setting [3]) it was “+ (If cell length was more than 50 μm and cell number was more than 5 in each visual field, it was deemed as CGC positive and was marked with “+”)”; with E. coli (setting [3]), “+ (If cell length was more than 50 μm and cell number was more than 5 in each visual field, it was deemed as CGC positive and was marked with “+”)”. For the same molecule, the CGC formation entry in the assay with Klebsiella (setting [3]) is “+ (If cell length was more than 50 μm and cell number was more than 5 in each visual field, it was deemed as CGC positive and was marked with “+”)”; in the assay on Listeria (setting [3]) it was “+ (If cell length was more than 50 μm and cell number was more than 5 in each visual field, it was deemed as CGC positive and was marked with “+”)”; in the assay with Nucleic Acid Bacter (setting [3]), “+ (If cell length was more than 50 μm and cell number was more than 5 in each visual field, it was deemed as CGC positive and was marked with “+”)”. Also, in [1] (N-acetyl-D-glucosamine (100 mg)+ampicillin (200 mg) vs only ampicillin), the “positive rates of stool CGC and intestinal mucosa CGC” value (shortened to “positive rates”) stood at 100%. Further, the “incidence rate of IBS” value in assay [2] (setting [4]), in assay [2] (setting [5]) and in assay [2] (setting [6]) was 33% in each case. Also, the “CGCs in the rat stools after one week of drug withdrawal” value (from here on “CGCs in the rat stools after one week”) in assay [2] was “still present”. In assay [2], the “CGCs in the stools of the rats” value is reported as “a large amount of CGCs appeared”.
As for `CO/N=C(\C(=O)N[C@@H]1C(=O)N2C(C(=O)O)=C(COC(N)=O)CS[C@H]12)c1ccco1` [Cefuroxime, cefuroxime], the CGC formation result is “+ (If cell length was more than 50 μm and cell number was more than 5 in each visual field, it was deemed as CGC positive and was marked with “+”)” with Bacillus cereus (setting [7]); “+ (If cell length was more than 50 μm and cell number was more than 5 in each visual field, it was deemed as CGC positive and was marked with “+”)” with Bacillus proteus (setting [7]); “+ (If cell length was more than 50 μm and cell number was more than 5 in each visual field, it was deemed as CGC positive and was marked with “+”)” with Bacteroides fragilis (setting [7]); “+ (If cell length was more than 50 μm and cell number was more than 5 in each visual field, it was deemed as CGC positive and was marked with “+”)” in the assay on Citro Bacter (setting [7]); “+ (If cell length was more than 50 μm and cell number was more than 5 in each visual field, it was deemed as CGC positive and was marked with “+”)” in the assay on Diphtheroid bacillus (setting [7]); “+ (If cell length was more than 50 μm and cell number was more than 5 in each visual field, it was deemed as CGC positive and was marked with “+”)” with E. coli (setting [7]). Further, the CGC formation entry is “+ (If cell length was more than 50 μm and cell number was more than 5 in each visual field, it was deemed as CGC positive and was marked with “+”)” in the assay with Klebsiella (setting [7]); “+ (If cell length was more than 50 μm and cell number was more than 5 in each visual field, it was deemed as CGC positive and was marked with “+”)” with Listeria (setting [7]); “+ (If cell length was more than 50 μm and cell number was more than 5 in each visual field, it was deemed as CGC positive and was marked with “+”)” with Nucleic Acid Bacter (setting [7]). Besides, in [1] (N-acetyl-D-glucosamine (100 mg)+cefuroxime (300 mg) vs antibiotic only), the “positive rates” value is reported as 100%. Besides, the “incidence rate of IBS” value in assay [2] (setting [4]), in [2] (setting [5]) and in assay [2] (setting [6]) was 33% in each case. For the same molecule, the “CGCs in the rat stools after one week” value in [2] is recorded as “still present”. For the same molecule, the “CGCs in the stools of the rats” value in assay [2] is reported as “a large amount of CGCs appeared”.
Take `CCn1cc(C(=O)O)c(=O)c2cc(F)c(N3CCNCC3)cc21` [Norfloxacin, norfloxacin]: the CGC formation entry with Bacillus cereus (setting [8]) is “+ (If cell length was more than 50 μm and cell number was more than 5 in each visual field, it was deemed as CGC positive and was marked with “+”)”; in the assay on Bacillus proteus (setting [8]), “+ (If cell length was more than 50 μm and cell number was more than 5 in each visual field, it was deemed as CGC positive and was marked with “+”)”; with Bacteroides fragilis (setting [8]), “+ (If cell length was more than 50 μm and cell number was more than 5 in each visual field, it was deemed as CGC positive and was marked with “+”)”; in the assay on Citro Bacter (setting [8]) it was “+ (If cell length was more than 50 μm and cell number was more than 5 in each visual field, it was deemed as CGC positive and was marked with “+”)”; in the assay with Diphtheroid bacillus (setting [8]) it was “+ (If cell length was more than 50 μm and cell number was more than 5 in each visual field, it was deemed as CGC positive and was marked with “+”)”; in the assay with E. coli (setting [8]) it was “+ (If cell length was more than 50 μm and cell number was more than 5 in each visual field, it was deemed as CGC positive and was marked with “+”)”. In addition, the CGC formation entry in the assay on Klebsiella (setting [8]) was “+ (If cell length was more than 50 μm and cell number was more than 5 in each visual field, it was deemed as CGC positive and was marked with “+”)”; with Listeria (setting [8]), “+ (If cell length was more than 50 μm and cell number was more than 5 in each visual field, it was deemed as CGC positive and was marked with “+”)”; in the assay on Nucleic Acid Bacter (setting [8]), “+ (If cell length was more than 50 μm and cell number was more than 5 in each visual field, it was deemed as CGC positive and was marked with “+”)”.
For `CO[C@@]1(NC(=O)Cc2cccs2)C(=O)N2C(C(=O)O)=C(COC(N)=O)CS[C@@H]21` [cefoxitin], the “positive rates” value in assay [1] (N-acetyl-D-glucosamine (100 mg)+cefoxitin (150 mg) vs only cefoxitin) worked out at 100%. For the same molecule, the “incidence rate of IBS” value in assay [2] (setting [4]), in assay [2] (setting [5]) and in assay [2] (setting [6]) was 33% throughout. In addition, in assay [2], the “CGCs in the rat stools after one week” value was “still present”. Also, the “CGCs in the stools of the rats” value in assay [2] is recorded as “a large amount of CGCs appeared”.
Consider `O=C(O)c1cn(C2CC2)c2cc(N3CCNCC3)c(F)cc2c1=O` [ciprofloxacin], for which, in assay [1] (N-acetyl-D-glucosamine (100 mg)+ciprofloxacin (500 mg) vs only ciprofloxacin), the “positive rates” value is on record as 100%.
